Assay: excess molar enthalpy (molar enthalpy of mixing); xn = mol fraction of the nth substance listed
Conditions: 298.15 K, 100 kPa

Row | SMILES | excess molar enthalpy (x2 = 0.214) [kcal/mol] | excess molar enthalpy (x2 = 0.3094) [kcal/mol] | excess molar enthalpy (x2 = 0.4262) [kcal/mol] | excess molar enthalpy (x2 = 0.5328) [kcal/mol] | excess molar enthalpy (x2 = 0.6067) [kcal/mol] | excess molar enthalpy (x2 = 0.6761) [kcal/mol] | excess molar enthalpy (x2 = 0.72) [kcal/mol] | excess molar enthalpy (x2 = 0.0754) [kcal/mol] | excess molar enthalpy (x2 = 0.1116) [kcal/mol] | excess molar enthalpy (x2 = 0.2147) [kcal/mol] | excess molar enthalpy (x2 = 0.3102) [kcal/mol] | excess molar enthalpy (x2 = 0.5338) [kcal/mol] | excess molar enthalpy (x2 = 0.6007) [kcal/mol] | excess molar enthalpy (x2 = 0.677) [kcal/mol]
1 | CC(C)OC(C)C + CCC(C)O | 0.165 | 0.189 | 0.198 | 0.187 | 0.17 | 0.146 | 0.133 | – | – | – | – | – | – | –
2 | CC(C)OC(C)C + CCCCO | – | – | – | – | – | – | – | 0.061 | 0.0808 | 0.109 | 0.118 | 0.102 | 0.0884 | 0.111

— a compilation of properties of binary mixtures (doi:10.1021/je990084v)
